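Interpolation was linear, between the two tested concentrations surrounding the appropriate level; five concentrations were tested over 48 hours in 96-well plates. GI50 is the concentration that inhibits growth by half. Definition used: TGI = concentration required for complete inhibition of growth.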
Columns and labels:
Assay in all cases: DTP human tumour cell line panel, 48 h; in the data active means GI50 below about 0.43 µM; inactive means the rest
786-0 renal = test system: 786-0 renal
A549 NSCLC = test system: A549 NSCLC
ACHN renal = test system: ACHN renal
BT-549 breast = test system: BT-549 breast
CAKI-1 renal = test system: CAKI-1 renal
COLO 205 colon = test system: COLO 205 colon
DU-145 prostate = test system: DU-145 prostate
EKVX NSCLC = test system: EKVX NSCLC
HCC-2998 colon = test system: HCC-2998 colon
HCT-116 colon = test system: HCT-116 colon
HCT-15 colon = test system: HCT-15 colon
HOP-62 NSCLC = test system: HOP-62 NSCLC
HOP-92 NSCLC = test system: HOP-92 NSCLC
HS 578T breast = test system: HS 578T breast
HT29 colon = test system: HT29 colon
IGROV1 ovarian = test system: IGROV1 ovarian
K-562 leukemia = test system: K-562 leukemia
KM12 colon = test system: KM12 colon
M14 melanoma = test system: M14 melanoma
MALME-3M melanoma = test system: MALME-3M melanoma
MDA-MB-231 breast = test system: MDA-MB-231 breast
MDA-MB-435 = test system: MDA-MB-435
MDA-N = test system: MDA-N
MOLT-4 leukemia = test system: MOLT-4 leukemia
NCI-H226 lung = test system: NCI-H226 lung
NCI-H23 lung = test system: NCI-H23 lung
NCI-H460 lung = test system: NCI-H460 lung
NCI-H522 lung = test system: NCI-H522 lung
NCI/ADR-RES ovarian = test system: NCI/ADR-RES ovarian
OVCAR-3 ovarian = test system: OVCAR-3 ovarian
OVCAR-5 ovarian = test system: OVCAR-5 ovarian
OVCAR-8 ovarian = test system: OVCAR-8 ovarian
PC-3 prostate = test system: PC-3 prostate
RPMI-8226 leukemia = test system: RPMI-8226 leukemia
RXF 393 renal = test system: RXF 393 renal
SF-268 CNS = test system: SF-268 CNS
SF-295 CNS = test system: SF-295 CNS
SF-539 CNS = test system: SF-539 CNS
SK-MEL-2 melanoma = test system: SK-MEL-2 melanoma
SK-MEL-28 melanoma = test system: SK-MEL-28 melanoma
SK-MEL-5 melanoma = test system: SK-MEL-5 melanoma
SK-OV-3 ovarian = test system: SK-OV-3 ovarian
SN12C renal = test system: SN12C renal
SNB-19 CNS = test system: SNB-19 CNS
SR leukemia = test system: SR leukemia
SW-620 colon = test system: SW-620 colon
T-47D breast = test system: T-47D breast
TK-10 renal = test system: TK-10 renal
U251 CNS = test system: U251 CNS
UACC-257 melanoma = test system: UACC-257 melanoma
UACC-62 melanoma = test system: UACC-62 melanoma
UO-31 renal = test system: UO-31 renal
A498 renal = test system: A498 renal
CCRF-CEM leukemia = test system: CCRF-CEM leukemia
HL-60(TB) leukemia = test system: HL-60(TB) leukemia
LOX IMVI melanoma = test system: LOX IMVI melanoma
MCF7 breast = test system: MCF7 breast
OVCAR-4 ovarian = test system: OVCAR-4 ovarian
SNB-75 CNS = test system: SNB-75 CNS

Oc1ccccc1/C=N/N1C(=S)N(C23CC4CC(CC(C4)C2)C3)C(=Nc2ccccc2)C1=Nc1ccccc1
> 100 µM: TGI (786-0 renal) | TGI (A549 NSCLC) | TGI (ACHN renal) | TGI (BT-549 breast) | TGI (CAKI-1 renal) | TGI (COLO 205 colon) | TGI (DU-145 prostate) | TGI (EKVX NSCLC) | TGI (HCC-2998 colon) | TGI (HCT-116 colon) | TGI (HCT-15 colon) | TGI (HOP-62 NSCLC) | TGI (HOP-92 NSCLC) | TGI (HS 578T breast) | TGI (HT29 colon) | TGI (IGROV1 ovarian) | TGI (K-562 leukemia) | TGI (KM12 colon) | TGI (M14 melanoma) | TGI (MALME-3M melanoma) | TGI (MDA-MB-231 breast) | TGI (MDA-MB-435) | TGI (MDA-N) | TGI (MOLT-4 leukemia) | TGI (NCI-H226 lung) | TGI (NCI-H23 lung) | TGI (NCI-H460 lung) | TGI (NCI-H522 lung) | TGI (NCI/ADR-RES ovarian) | TGI (OVCAR-3 ovarian) | TGI (OVCAR-5 ovarian) | TGI (OVCAR-8 ovarian) | TGI (PC-3 prostate) | TGI (RPMI-8226 leukemia) | TGI (RXF 393 renal) | TGI (SF-268 CNS) | TGI (SF-295 CNS) | TGI (SF-539 CNS) | TGI (SK-MEL-2 melanoma) | TGI (SK-MEL-28 melanoma) | TGI (SK-MEL-5 melanoma) | TGI (SK-OV-3 ovarian) | TGI (SN12C renal) | TGI (SNB-19 CNS) | TGI (SR leukemia) | TGI (SW-620 colon) | TGI (T-47D breast) | TGI (TK-10 renal) | TGI (U251 CNS) | TGI (UACC-257 melanoma) | TGI (UACC-62 melanoma) | TGI (UO-31 renal)

COc1ccc(S(=O)(=O)N(C(C)=O)c2ccccc2/C=C/c2cc[n+]([O-])cc2)cc1
8.08 µM: TGI (M14 melanoma)
2.45 µM: TGI (SF-539 CNS)
> 2.8 µM: TGI (A498 renal)
> 3.17 µM: TGI (K-562 leukemia)
2.3 µM: TGI (COLO 205 colon)
active: GI50 (A498 renal) 209 nM | GI50 (HS 578T breast) 404 nM | GI50 (HT29 colon) 422 nM | GI50 (K-562 leukemia) 321 nM | GI50 (KM12 colon) 335 nM | GI50 (M14 melanoma) 388 nM | GI50 (MDA-MB-435) 143 nM | GI50 (NCI-H460 lung) 412 nM | GI50 (NCI-H522 lung) 225 nM | GI50 (OVCAR-3 ovarian) 371 nM | GI50 (SF-295 CNS) 385 nM | GI50 (SF-539 CNS) 377 nM | GI50 (SNB-19 CNS) 418 nM | GI50 (SNB-75 CNS) 250 nM | GI50 (SR leukemia) 230 nM
inactive: GI50 (786-0 renal) 1670 nM | GI50 (A549 NSCLC) 636 nM | GI50 (ACHN renal) 2360 nM | GI50 (BT-549 breast) 560 nM | GI50 (CAKI-1 renal) 588 nM | GI50 (CCRF-CEM leukemia) 762 nM | GI50 (COLO 205 colon) 529 nM | GI50 (DU-145 prostate) 813 nM | GI50 (EKVX NSCLC) 1020 nM | GI50 (HCC-2998 colon) 2270 nM | GI50 (HCT-116 colon) 542 nM | GI50 (HCT-15 colon) 742 nM | GI50 (HL-60(TB) leukemia) 640 nM | GI50 (HOP-62 NSCLC) 860 nM | GI50 (IGROV1 ovarian) 1070 nM | GI50 (LOX IMVI melanoma) 955 nM | GI50 (MALME-3M melanoma) 3.77 µM | GI50 (MCF7 breast) 428 nM | GI50 (MDA-MB-231 breast) 1260 nM | GI50 (MOLT-4 leukemia) 1250 nM | GI50 (NCI-H226 lung) 2480 nM | GI50 (NCI-H23 lung) 1220 nM | GI50 (NCI/ADR-RES ovarian) 2510 nM | GI50 (OVCAR-4 ovarian) > 6.79 µM | GI50 (OVCAR-5 ovarian) 3.26 µM | GI50 (OVCAR-8 ovarian) 1110 nM | GI50 (PC-3 prostate) 688 nM | GI50 (RPMI-8226 leukemia) 953 nM | GI50 (RXF 393 renal) 456 nM | GI50 (SF-268 CNS) 1710 nM | GI50 (SK-MEL-2 melanoma) 540 nM | GI50 (SK-MEL-28 melanoma) > 4.8 µM | GI50 (SK-MEL-5 melanoma) 703 nM | GI50 (SK-OV-3 ovarian) 1050 nM | GI50 (SN12C renal) 1610 nM | GI50 (SW-620 colon) 559 nM | GI50 (T-47D breast) 3.84 µM | GI50 (U251 CNS) 504 nM | GI50 (UACC-62 melanoma) 457 nM | GI50 (UO-31 renal) 5.02 µM
1.57 µM: TGI (OVCAR-3 ovarian)
> 6.85 µM: TGI (RXF 393 renal)
0.576 µM: TGI (MDA-MB-435)
> 6.53 µM: TGI (HL-60(TB) leukemia)
> 7.66 µM: TGI (CCRF-CEM leukemia)
> 10 µM: TGI (786-0 renal) | TGI (A549 NSCLC) | TGI (ACHN renal) | TGI (BT-549 breast) | TGI (CAKI-1 renal) | TGI (DU-145 prostate) | TGI (EKVX NSCLC) | TGI (HCC-2998 colon) | TGI (HCT-116 colon) | TGI (HCT-15 colon) | TGI (HOP-62 NSCLC) | TGI (HOP-92 NSCLC) | TGI (HS 578T breast) | TGI (HT29 colon) | TGI (IGROV1 ovarian) | TGI (KM12 colon) | TGI (LOX IMVI melanoma) | TGI (MALME-3M melanoma) | TGI (MCF7 breast) | TGI (MDA-MB-231 breast) | TGI (MOLT-4 leukemia) | TGI (NCI-H226 lung) | TGI (NCI-H23 lung) | TGI (NCI-H460 lung) | TGI (NCI/ADR-RES ovarian) | TGI (OVCAR-4 ovarian) | TGI (OVCAR-5 ovarian) | TGI (OVCAR-8 ovarian) | TGI (PC-3 prostate) | TGI (RPMI-8226 leukemia) | TGI (SF-268 CNS) | TGI (SF-295 CNS) | TGI (SK-MEL-2 melanoma) | TGI (SK-MEL-28 melanoma) | TGI (SK-MEL-5 melanoma) | TGI (SK-OV-3 ovarian) | TGI (SN12C renal) | TGI (SNB-19 CNS) | TGI (SNB-75 CNS) | TGI (SR leukemia) | TGI (SW-620 colon) | TGI (T-47D breast) | TGI (TK-10 renal) | TGI (U251 CNS) | TGI (UACC-257 melanoma) | TGI (UACC-62 melanoma) | TGI (UO-31 renal)
1.65 µM: TGI (NCI-H522 lung)

N#C/C(C(=O)NCc1ccccc1)=C(/N)N1CCCC1
> 100 µM: TGI (786-0 renal) | TGI (A498 renal) | TGI (A549 NSCLC) | TGI (ACHN renal) | TGI (CAKI-1 renal) | TGI (CCRF-CEM leukemia) | TGI (COLO 205 colon) | TGI (DU-145 prostate) | TGI (EKVX NSCLC) | TGI (HCC-2998 colon) | TGI (HCT-116 colon) | TGI (HCT-15 colon) | TGI (HL-60(TB) leukemia) | TGI (HOP-62 NSCLC) | TGI (HOP-92 NSCLC) | TGI (HS 578T breast) | TGI (HT29 colon) | TGI (IGROV1 ovarian) | TGI (K-562 leukemia) | TGI (KM12 colon) | TGI (LOX IMVI melanoma) | TGI (M14 melanoma) | TGI (MALME-3M melanoma) | TGI (MDA-MB-231 breast) | TGI (MDA-MB-435) | TGI (MDA-N) | TGI (MOLT-4 leukemia) | TGI (NCI-H226 lung) | TGI (NCI-H23 lung) | TGI (NCI-H460 lung) | TGI (NCI-H522 lung) | TGI (NCI/ADR-RES ovarian) | TGI (OVCAR-3 ovarian) | TGI (OVCAR-4 ovarian) | TGI (OVCAR-5 ovarian) | TGI (OVCAR-8 ovarian) | TGI (PC-3 prostate) | TGI (RPMI-8226 leukemia) | TGI (RXF 393 renal) | TGI (SF-268 CNS) | TGI (SF-295 CNS) | TGI (SF-539 CNS) | TGI (SK-MEL-2 melanoma) | TGI (SK-MEL-28 melanoma) | TGI (SK-MEL-5 melanoma) | TGI (SK-OV-3 ovarian) | TGI (SN12C renal) | TGI (SNB-19 CNS) | TGI (SR leukemia) | TGI (SW-620 colon) | TGI (T-47D breast) | TGI (TK-10 renal) | TGI (U251 CNS) | TGI (UACC-257 melanoma) | TGI (UACC-62 melanoma) | TGI (UO-31 renal)

Source: PubChem BioAssay (NCI)
